Earlier results as cited in PMC6376154 (International Journal for Parasitology: Drugs and Drug …, 2019).
Where two headings read alike, the source gives them in different places.

Test system: P. falciparum 3D7 asexual blood stage
Conditions: cited from earlier work
[1] = MMV Malaria Box sheet, ref MMV data sheets
[2] = MMV Malaria Box sheet, ref MMV data sheets, read-out: EC50_nM
[3] = source GSK, ref ChEMBL_NTD, read-out: CHEMBL EC50
[4] = ChEMBL-NTD value per source (GNF, GSK, StJude), several values in a cell follow the order of the sources, read-out: CHEMBL EC50
[5] = MMV Malaria Box data sheet (supplement mmc2.xls), ref MMV data sheet
[6] = value(s) per source (GSK, GNF, StJude), separated by semicolon, ref ChEMBL-NTD, read-out: CHEMBL EC50
[7] = MMV Malaria Box data sheet (supplement mmc2.xls), ref MMV data sheet, read-out: EC50_nM
[8] = source StJude, ref ChEMBL_NTD, read-out: CHEMBL EC50
[9] = MMV Malaria Box data sheet, ref MMV data sheets
[10] = MMV Malaria Box data sheet, ref MMV data sheets, read-out: EC50_nM
[11] = source GNF, ref ChEMBL_NTD, read-out: CHEMBL EC50

O=C(Nc1cccc(-c2nc3ccccc3[nH]2)c1)c1cccc(NC(=O)c2ccco2)c1 [MMV665883]
percent_inh @ 5 uM [1]: 95%
EC50 [2]: 745 nM
EC50 [3]: 360 nM

CC(Oc1ccc(NC(=O)c2cccs2)cc1)C(=O)c1ccc(Cl)cc1 (centres unmarked) [MMV665886]
EC50 [4]: 774 nM

O=C(Nc1ccccc1O)c1ccc(Oc2cccc(C(=O)Nc3ccccc3O)c2)cc1 [MMV665888]
percent_inh @ 5 uM [5]: 91%
EC50 [6]: 799 nM

COc1ccc(-c2nonc2NC(=O)c2cccc(C)c2)cc1OC [MMV665890]
percent_inh @ 5 uM [5]: 95%
EC50 [6]: 806 nM

c1ccc(-c2ccc(-c3nc4ccccc4[nH]3)cc2)cc1 [MMV665891]
percent_inh @ 5 uM [5]: 52%
EC50 [7]: 1070 nM
EC50 [6]: 809 nM

CC(=O)c1sc(NC(=O)Nc2ccc(C)cc2C)nc1C [MMV665894]
EC50 [4]: 906 nM

COc1ccc2nc(N)nc(C)c2c1 [MMV665897]
percent_inh @ 5 uM [1]: 63%
EC50 [3]: 927 nM

COc1cc(C(=O)Nc2ccc(-c3nc4ccccc4[nH]3)cc2)cc(OC)c1OC [MMV665898]
EC50 [4]: 982 nM

O=C(c1ccccc1F)N(Cc1ccc(Cl)cc1)c1ccccn1 [MMV665899]
percent_inh @ 5 uM [5]: 59%
EC50 [6]: 1020 nM

O=C(Nc1ccc(CN2CCOCC2)cc1)c1ccc(-c2ccc(Br)cc2)o1 [MMV665901]
percent_inh @ 5 uM [5]: 96%
EC50 [7]: 1360 nM
EC50 [6]: 1120 nM

N=c1n(CCN2CCCCC2)c2ccccc2n1CC(O)c1cccc(Br)c1 (centres unmarked) [MMV665902]
percent_inh @ 5 uM [5]: 98%
EC50 [7]: 893 nM
EC50 [6]: 1140 nM

COCCn1c(C)nc2ccccc2c1=O [MMV665904]
percent_inh @ 5 uM [1]: 59%
EC50 [3]: 1460 nM

Cc1ccc(-c2cc(C(=O)Nc3ccc(S(=O)(=O)N4CCCCC4)cc3)[nH]n2)c(O)c1 [MMV665906]
percent_inh @ 5 uM [5]: 94%
EC50 [7]: 535 nM
EC50 [6]: 1770 nM

COc1ccc(N2CCN(C(CNC(=O)CC(C)(C)C)c3ccc4c(c3)OCO4)CC2)cc1 (centres unmarked) [MMV665908]
percent_inh @ 5 uM [1]: 95%
EC50 [8]: 4280 nM

O=C(Nc1nc(-c2ccccn2)cs1)c1ccccc1Br [MMV665909]
percent_inh @ 5 uM [9]: 97%
EC50 [10]: 1360 nM
EC50 [8]: 4530 nM

CCOc1ccc(-c2nc(NC(=O)c3cccc(S(C)(=O)=O)c3)sc2C)cc1 [MMV665913]
percent_inh @ 5 uM [5]: 95%
EC50 [6]: 15000 nM

COc1ccccc1N1CCN(C(CNS(=O)(=O)c2ccc(Cl)cc2)c2cccnc2)CC1 (centres unmarked) [MMV665914]
percent_inh @ 5 uM [5]: 93%
EC50 [6]: 15000 nM

COc1ccc(-c2nc(NC(=O)CS(=O)(=O)c3ccc(F)cc3)sc2C)cc1 [MMV665915]
percent_inh @ 5 uM [9]: 97%
EC50 [10]: 448 nM
EC50 [11]: 212 nM
EC50 [3]: 243 nM

COc1ccccc1CNC(=O)CCn1c(=O)[nH]c2ccccc2c1=O [MMV665916]
percent_inh @ 5 uM [9]: 64%
EC50 [10]: 72.6 nM
EC50 [11]: 537 nM

O=C(Nc1ccc(Cl)cc1)N1CCN(c2ccc3nncn3n2)CC1 [MMV665917]
percent_inh @ 5 uM [9]: 62%
EC50 [11]: 2060 nM

O=C(CSc1ccc2nnc(-c3cccc(F)c3)n2n1)Nc1ccc2c(c1)OCO2 [MMV665918]
percent_inh @ 5 uM [5]: 92%
EC50 [6]: 2110 nM

N=c1c2ccccc2nnn1-c1cccc(C(F)(F)F)c1 [MMV665923]
EC50 [4]: 134 nM

COc1ccc(C(=O)C2CC2c2ccc(Cl)cc2)cc1 (centres unmarked) [MMV665924]
percent_inh @ 5 uM [1]: 94%
EC50 [2]: 1060 nM
EC50 [11]: 217 nM

O=C(CCl)NCCOc1ccc(Cl)cc1Cl [MMV665927]
EC50 [4]: 538 nM

CCC(C)NCC(O)(c1ccc(Cl)cc1)c1ccc(Cl)cc1 (centres unmarked) [MMV665928]
percent_inh @ 5 uM [9]: 98%
EC50 [10]: 642 nM
EC50 [11]: 639 nM
EC50 [3]: 843 nM

CCCCNCC(O)(c1ccc(Cl)cc1)c1ccc(Cl)cc1 [MMV665929]
percent_inh @ 5 uM [5]: 97%
EC50 [7]: 843 nM
EC50 [6]: 720 nM

O=C1c2ccccc2-c2nnc(-c3ccc(Br)cc3)cc21 [MMV665934]
percent_inh @ 5 uM [1]: 99%
EC50 [2]: 1070 nM
EC50 [11]: 2500 nM

FC(F)(F)c1ccc(Nc2nnnc3ccccc23)cc1 [MMV665935]
percent_inh @ 5 uM [5]: 77%

Cc1ccc(S(=O)(=O)c2c(COC(=O)c3cccc(C)c3)c(-c3ccccc3)nn2C)cc1 [MMV665936]
percent_inh @ 5 uM [1]: 95%
EC50 [11]: 8400 nM

O=C(Nc1ccsc1C(=O)NC1CCCCC1)c1ccc(F)cc1 [MMV665939]
percent_inh @ 5 uM [5]: 86%
EC50 [6]: 1210 nM

CCOc1ccc(C=Cc2nc(=O)c3ccccc3o2)cc1 [MMV665940]
percent_inh @ 5 uM [9]: 95%
EC50 [10]: 560 nM
EC50 [8]: 188 nM

CN(C)c1ccc(C(O)(c2ccc(N(C)C)cc2)c2ccc(N(C)C)cc2)cc1 [MMV665941]
percent_inh @ 5 uM [9]: 96%
EC50 [10]: 255 nM
EC50 [8]: 620 nM

Nc1ccc(-c2nc3cc(Cc4ccc5[nH]c(-c6ccc(N)cc6)nc5c4)ccc3[nH]2)cc1 [MMV665943]
percent_inh @ 5 uM [1]: 100%
EC50 [2]: 1420 nM
EC50 [11]: 243 nM
EC50 [3]: 512 nM
EC50 [8]: 1080 nM

COc1ccc(CN2CCN(Cc3ccccc3)CC2)c(O)c1 [MMV665944]
percent_inh @ 5 uM [1]: 96%
EC50 [2]: 1080 nM
EC50 [8]: 1090 nM

CC(C)=CCN1CCC(C(=O)Nc2ccc(-c3nc4ccccc4[nH]3)cc2)CC1 [MMV665946]
percent_inh @ 5 uM [5]: 96%
EC50 [7]: 1160 nM

O=C(Nc1ccccc1O)c1ccc(-c2ccc(Cl)cc2Cl)o1 [MMV665948]
percent_inh @ 5 uM [5]: 97%
EC50 [6]: 2460 nM

Oc1ccc(C(=C(Cl)Cl)c2ccc(O)cc2)cc1 [MMV665949]
percent_inh @ 5 uM [1]: 95%
EC50 [8]: 2470 nM

O=C(Nc1ccc(F)c(Cl)c1)Nc1ccc(Cl)c(Cl)c1 [MMV665953]
percent_inh @ 5 uM [5]: 95%
EC50 [7]: 2060 nM
EC50 [6]: 5410 nM

O=C(NCC1Cc2cccc(-c3ccncc3)c2O1)c1csc2c1CCCC2 (centres unmarked) [MMV665954]
percent_inh @ 5 uM [5]: 87%
EC50 [7]: 1720 nM
EC50 [6]: 8740 nM

CCN(CC)CCCNc1nc(-c2ccc(Cl)cc2)nc2ccccc12 [MMV665961]
percent_inh @ 5 uM [5]: 92%
EC50 [6]: 15000 nM

COc1cccc(C(=O)NC(c2ccc(C)cc2)c2cc(Cl)c3cccnc3c2O)c1 (centres unmarked) [MMV665969]
percent_inh @ 5 uM [1]: 97%
EC50 [2]: 393 nM
EC50 [8]: 15000 nM

CCOC(=O)C1=C(C)N=c2sc(=Cc3cc(Cl)ccc3O)c(=O)n2C1c1ccc(OC)cc1 (centres unmarked) [MMV665971]
percent_inh @ 5 uM [1]: 97%
EC50 [2]: 489 nM
EC50 [3]: 746 nM
EC50 [8]: 15000 nM

O=C(Cc1ccccc1)NC(c1ccc(Cl)cc1)c1c(O)ccc2ccccc12 (centres unmarked) [MMV665972]
EC50 [4]: 15000 nM

CCOC(=O)c1cn(CC)c2cc(N(C)CCc3ccc(OC)c(OC)c3)c(F)cc2c1=O [MMV665977]
percent_inh @ 5 uM [9]: 99%
EC50 [10]: 205 nM
EC50 [11]: 103 nM
EC50 [3]: 425 nM

FC(F)(F)c1cccc(CNC2CCN(CCc3ccccc3)CC2)c1 [MMV665979]
percent_inh @ 5 uM [9]: 96%
EC50 [10]: 685 nM
EC50 [11]: 174 nM

OC1CCCCC1C1(NC(=S)Nc2ccccc2)CCCCC1 (centres unmarked) [MMV665980]
percent_inh @ 5 uM [1]: 59%
EC50 [11]: 211 nM

CCCCCCc1cc(O)c2c3c(c(=O)oc2c1)CCC(C)C3 (centres unmarked) [MMV665987]
percent_inh @ 5 uM [1]: 96%
EC50 [2]: 534 nM
EC50 [11]: 364 nM

Cc1nc2ccccc2c(O)c1CC=C(Cl)Cl [MMV665994]
percent_inh @ 5 uM [1]: 89%
EC50 [2]: 836 nM
EC50 [11]: 498 nM

CN1c2ccccc2N(C)C1c1ccc2c(c1)OCO2 [MMV666009]
percent_inh @ 5 uM [5]: 60%
EC50 [7]: 994 nM
EC50 [6]: 1120 nM

Cc1ccc(OCCCCCCNCCO)c(C)c1 [MMV666020]
percent_inh @ 5 uM [1]: 49%
EC50 [11]: 1970 nM

Cc1ccc(-c2cc3c(nn2)-c2ccccc2C3=O)cc1 [MMV666021]
percent_inh @ 5 uM [9]: 99%
EC50 [10]: 94.4 nM
EC50 [11]: 2000 nM

COc1ccc(C(=O)NC(c2ccccc2Cl)c2cc(Cl)c3cccnc3c2O)cc1 (centres unmarked) [MMV666022]
EC50 [4]: 2370 nM
